# Test results as given in US20240376099A1, “COMPOUNDS AND COMPOSITIONS AS INHIBITORS OF ENDOSOMAL TOLL-LIKE RECEPTORS” (Novartis AG, priority 2016, published 2024).
# Target: T1, TLR7 (Homo sapiens, UniProt Q9NYK1)
# T1 construct: Fresh blood was collected from normal human donors; endogenous in cells; host or cells: human PBMCs from fresh donor blood
# T1 sequence (Q9NYK1 27-1049): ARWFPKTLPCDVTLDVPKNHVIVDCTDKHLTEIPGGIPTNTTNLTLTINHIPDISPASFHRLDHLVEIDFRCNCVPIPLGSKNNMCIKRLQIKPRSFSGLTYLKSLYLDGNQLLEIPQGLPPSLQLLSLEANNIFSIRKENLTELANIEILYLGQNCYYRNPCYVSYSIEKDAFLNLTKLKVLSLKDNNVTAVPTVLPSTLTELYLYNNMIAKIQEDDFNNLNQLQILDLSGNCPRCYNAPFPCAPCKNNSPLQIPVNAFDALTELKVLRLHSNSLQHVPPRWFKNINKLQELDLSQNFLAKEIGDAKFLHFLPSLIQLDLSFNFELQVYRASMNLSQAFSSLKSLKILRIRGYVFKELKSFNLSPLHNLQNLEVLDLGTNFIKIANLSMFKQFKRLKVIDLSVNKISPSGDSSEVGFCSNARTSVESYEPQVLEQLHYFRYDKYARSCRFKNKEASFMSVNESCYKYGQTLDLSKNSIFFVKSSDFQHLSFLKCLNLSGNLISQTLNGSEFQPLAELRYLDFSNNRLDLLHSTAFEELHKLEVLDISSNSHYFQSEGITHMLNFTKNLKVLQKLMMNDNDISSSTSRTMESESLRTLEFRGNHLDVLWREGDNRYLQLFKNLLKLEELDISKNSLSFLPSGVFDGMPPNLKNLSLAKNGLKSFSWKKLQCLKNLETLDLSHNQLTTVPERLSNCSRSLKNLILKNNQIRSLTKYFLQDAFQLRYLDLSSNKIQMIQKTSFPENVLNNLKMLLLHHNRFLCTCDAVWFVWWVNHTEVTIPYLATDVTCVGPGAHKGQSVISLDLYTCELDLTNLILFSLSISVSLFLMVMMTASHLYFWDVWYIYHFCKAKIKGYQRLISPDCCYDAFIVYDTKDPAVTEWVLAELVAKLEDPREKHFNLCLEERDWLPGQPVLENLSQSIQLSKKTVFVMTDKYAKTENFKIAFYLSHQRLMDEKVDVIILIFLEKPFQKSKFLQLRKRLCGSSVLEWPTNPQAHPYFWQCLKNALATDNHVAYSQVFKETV
# Experiment: huPBMC TLR7 Antagonist IFNα Assay
# Type: cell-based
# Settings: human PBMCs stimulated with ssRNA40 10 μg/mL (DOTAP), 14-16 hrs; IFNα2b AlphaLISA read-out
# Procedure, shortened: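 Human PBMCs from fresh donor blood (150,000 cells/well) stimulated 14–16 h at 37 °C with DOTAP-complexed ssRNA40 (final 1 μg/ml for TLR8, 10 μg/mL for TLR7) or ODN2216 (final 0.3 μM, TLR9), 0.25% DMSO, ten-point 1/3 compound dilutions. Supernatant IL-6 read by HTRF (TLR8); IFNα by IFNα2b AlphaLISA (TLR7/TLR9).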
row,Compound,IC50 [nM]
1,"Cc1cc(N2CCc3c(c(C)nn3CC34CCC(N5CCO[C@@H](C)C5)(CC3)CC4)C2)c2cnn(C)c2n1 [compound 109, (S)-4-(4-((5-(1,6-dimethyl-1H-pyrazolo[3,4-b]pyridin-4-yl)-3-methyl-4,5,6,7-tetrahydro-1H-pyrazolo[4,3-c]pyridin-1-yl)methyl)bicyclo[2.2.2]octan-1-yl)-2-methylmorpholine]",12
2,"Cc1cc(N2CCc3c(c(C)nn3CC34CCC(N5C[C@@H](C)O[C@@H](C)C5)(CC3)CC4)C2)c2cnn(C)c2n1 [compound 110, (2S,6R)-4-(4-((5-(1,6-dimethyl-1H-pyrazolo[3,4-b]pyridin-4-yl)-3-methyl-4,5,6,7-tetrahydro-1H-pyrazolo[4,3-c]pyridin-1-yl)methyl)bicyclo[2.2.2]octan-1-yl)-2,6-dimethylmorpholine]",7
3,"Cc1cc(N2CCc3c(c(C)nn3CC34CCC(N5C[C@H](C)O[C@@H](C)C5)(CC3)CC4)C2)c2cnn(C)c2n1 [compound 111, (2S,6S)-4-(4-((5-(1,6-dimethyl-1H-pyrazolo[3,4-b]pyridin-4-yl)-3-methyl-4,5,6,7-tetrahydro-1H-pyrazolo[4,3-c]pyridin-1-yl)methyl)bicyclo[2.2.2]octan-1-yl)-2,6-dimethylmorpholine]",28
4,"Cc1cc(N2CCc3c(c(C)nn3CC34CCC(NCC5CCC5)(CC3)CO4)C2)c2cnn(C)c2n1 [compound 112, N-(cyclobutylmethyl)-1-((5-(1,6-dimethyl-1H-pyrazolo[3,4-b]pyridin-4-yl)-3-methyl-4,5,6,7-tetrahydro-1H-pyrazolo[4,3-c]pyridin-1-yl)methyl)-2-oxabicyclo[2.2.2]octan-4-amine]",24
5,"Cc1cc(N2CCc3c(c(C)nn3CC34CCC(N5C[C@@H](C)O[C@H](C)C5)(CC3)CC4)C2)c2cnn(C)c2n1 [compound 113, (2R,6R)-4-(4-((5-(1,6-dimethyl-1H-pyrazolo[3,4-b]pyridin-4-yl)-3-methyl-4,5,6,7-tetrahydro-1H-pyrazolo[4,3-c]pyridin-1-yl)methyl)bicyclo[2.2.2]octan-1-yl)-2,6-dimethylmorpholine]",53
6,"CCNCC(=O)NC12CCC(Cn3nc(C)c4c3CCN(c3cc(C)nc5c3cnn5C)C4)(CC1)CC2 [compound 114, N-(4-((5-(1,6-dimethyl-1H-pyrazolo[3,4-b]pyridin-4-yl)-3-methyl-4,5,6,7-tetrahydro-1H-pyrazolo[4,3-c]pyridin-1-yl)methyl)bicyclo[2.2.2]octan-1-yl)-2-(ethylamino)acetamide]",10
7,"Cc1cc(N2CCc3c(c(C)nn3CC34CCC(NC(=O)CCN)(CC3)CC4)C2)c2cnn(C)c2n1 [compound 115, 3-amino-N-(4-((5-(1,6-dimethyl-1H-pyrazolo[3,4-b]pyridin-4-yl)-3-methyl-4,5,6,7-tetrahydro-1H-pyrazolo[4,3-c]pyridin-1-yl)methyl)bicyclo[2.2.2]octan-1-yl)propanamide]",10
8,"Cc1cc(N2CCc3c(c(C)nn3CC34CCC(N5CC6(COC6)C5)(CC3)CC4)C2)c2cnn(C)c2n1 [compound 116, 6-(4-((5-(1,6-dimethyl-1H-pyrazolo[3,4-b]pyridin-4-yl)-3-methyl-4,5,6,7-tetrahydro-1H-pyrazolo[4,3-c]pyridin-1-yl)methyl)bicyclo[2.2.2]octan-1-yl)-2-oxa-6-azaspiro[3.3]heptane]",9
9,"CN[C@H](C)C(=O)NC12CCC(Cn3nc(C)c4c3CCN(c3cc(C)nc5c3cnn5C)C4)(CC1)CC2 [compound 117, (R)-N-(4-((5-(1,6-dimethyl-1H-pyrazolo[3,4-b]pyridin-4-yl)-3-methyl-4,5,6,7-tetrahydro-1H-pyrazolo[4,3-c]pyridin-1-yl)methyl)bicyclo[2.2.2]octan-1-yl)-2-(methylamino)propanamide]",2
10,CN[C@@H](C)C(=O)NC12CCC(Cn3nc(C)c4c3CCN(c3cc(C)nc5c3cnn5C)C4)(CC1)CC2 [compound 118],2
11,"CNCC(=O)NC12CCC(Cn3nc(C)c4c3CCN(c3cc(C)nc5c3cnn5C)C4)(CC1)CC2 [compound 121, N-(4-((5-(1,6-dimethyl-1H-pyrazolo[3,4-b]pyridin-4-yl)-3-methyl-4,5,6,7-tetrahydro-1H-pyrazolo[4,3-c]pyridin-1-yl)methyl)bicyclo[2.2.2]octan-1-yl)-2-(methylamino)acetamide]",5
12,"Cc1cc(N2CCc3c(c(C)nn3CC34CCC(NCC(C)(C)O)(CC3)CC4)C2)c2cnn(C)c2n1 [compound 123, 1-((4-((5-(1,6-dimethyl-1H-pyrazolo[3,4-b]pyridin-4-yl)-3-methyl-4,5,6,7-tetrahydro-1H-pyrazolo[4,3-c]pyridin-1-yl)methyl)bicyclo[2.2.2]octan-1-yl)amino)-2-methylpropan-2-ol]",24
13,"CCNCC(=O)NC12CCC(Cn3nc(C)c4c3CCN(c3cc(C)nc5cn[nH]c35)C4)(CC1)CC2 [compound 124, 2-(ethylamino)-N-(4-((3-methyl-5-(5-methyl-1H-pyrazolo[4,3-b]pyridin-7-yl)-4,5,6,7-tetrahydro-1H-pyrazolo[4,3-c]pyridin-1-yl)methyl)bicyclo[2.2.2]octan-1-yl)acetamide]",1040
14,"Cc1cc(N2CCc3c(c(C)nn3CC34CCC(NC(=O)C5CNCCO5)(CC3)CC4)C2)c2cnn(C)c2n1 (stereo not drawn) [compound 125, N-(4-((5-(1,6-dimethyl-1H-pyrazolo[3,4-b]pyridin-4-yl)-3-methyl-4,5,6,7-tetrahydro-1H-pyrazolo[4,3-c]pyridin-1-yl)methyl)bicyclo[2.2.2]octan-1-yl)morpholine-2-carboxamide]",4

# Next, values leading:
row,IC50 [nM],Compound
1,20,"CCNCCC(=O)NC12CCC(Cn3nc(C)c4c3CCN(c3cc(C)nc5c3cnn5C)C4)(CC1)CC2 [compound 126, N-(4-((5-(1,6-dimethyl-1H-pyrazolo[3,4-b]pyridin-4-yl)-3-methyl-4,5,6,7-tetrahydro-1H-pyrazolo[4,3-c]pyridin-1-yl)methyl)bicyclo[2.2.2]octan-1-yl)-3-(ethylamino)propanamide]"
2,259,"CCNC12CCC(Cn3nc(C)c4c3CCN(c3ccnc(-c5ccccc5)c3)C4)(CC1)CC2 [compound 127, N-ethyl-4-((3-methyl-5-(2-phenylpyridin-4-yl)-4,5,6,7-tetrahydro-1H-pyrazolo[4,3-c]pyridin-1-yl)methyl)bicyclo[2.2.2]octan-1-amine]"
3,6,"Cc1cc(N2CCc3c(c(C)nn3CC34CCC(N5CCOC[C@@H]5C)(CC3)CC4)C2)c2cnn(C)c2n1 [compound 128, (S)-4-(4-((5-(1,6-dimethyl-1H-pyrazolo[3,4-b]pyridin-4-yl)-3-methyl-4,5,6,7-tetrahydro-1H-pyrazolo[4,3-c]pyridin-1-yl)methyl)bicyclo[2.2.2]octan-1-yl)-3-methylmorpholine]"
4,8,"Cc1cc(N2CCc3c(c(C)nn3CC34CCC(N5CCOC[C@H]5C)(CC3)CC4)C2)c2cnn(C)c2n1 [compound 129, (R)-4-(4-((5-(1,6-dimethyl-1H-pyrazolo[3,4-b]pyridin-4-yl)-3-methyl-4,5,6,7-tetrahydro-1H-pyrazolo[4,3-c]pyridin-1-yl)methyl)bicyclo[2.2.2]octan-1-yl)-3-methylmorpholine]"
5,1330,"COCCNC12CCC(Cn3nc(C)c4c3CCN(c3ccnc(-c5ccccc5)c3)C4)(CC1)CC2 [compound 130, N-(2-methoxyethyl)-4-((3-methyl-5-(2-phenylpyridin-4-yl)-4,5,6,7-tetrahydro-1H-pyrazolo[4,3-c]pyridin-1-yl)methyl)bicyclo[2.2.2]octan-1-amine]"
6,3,"Cc1cc(N2CCc3c(c(C)nn3CC34CCC(NC(=O)C5CNC5)(CC3)CC4)C2)c2cnn(C)c2n1 [compound 131, N-(4-((5-(1,6-dimethyl-1H-pyrazolo[3,4-b]pyridin-4-yl)-3-methyl-4,5,6,7-tetrahydro-1H-pyrazolo[4,3-c]pyridin-1-yl)methyl)bicyclo[2.2.2]octan-1-yl)azetidine-3-carboxamide]"
7,< 0.508,"CCN(C)CC(=O)NC12CCC(Cn3nc(C)c4c3CCN(c3cc(C)nc5c3cnn5C)C4)(CC1)CC2 [compound 132, N-(4-((5-(1,6-dimethyl-1H-pyrazolo[3,4-b]pyridin-4-yl)-3-methyl-4,5,6,7-tetrahydro-1H-pyrazolo[4,3-c]pyridin-1-yl)methyl)bicyclo[2.2.2]octan-1-yl)-2-(ethyl(methyl)amino)acetamide]"
